Assay results from ChEMBL document CHEMBL4354792, “Emerging modes-of-action in drug discovery” (Medchemcomm, 2019).

Tests used:
Ribosome = experiment: Inhibition of 80s ribosome in CHOK1 cells assessed as reduction in PL-tagged PCSK9 expression incubated for over night by EFC kit method; assay type: cell-based; settings: Cricetulus griseus, CHO-K1
[1] = Binding affinity to MMTV-PyMT mouse MALAT1 long non-coding RNA by FRET assay

IC50 (Ribosome) [µM] | IC50 [1] [µM] | Structure (SMILES)
4.8 |  | COc1ccc(CCC(=O)N(c2nccc3ccccc23)[C@@H]2CCCNC2)cc1
 | 1.3 to 2.5 | N=C(NC1CCN(Cc2ccccc2)CC1)c1ccc(-c2ccc(-c3ccc(C(=N)NC4CCN(Cc5ccccc5)CC4)cc3)o2)cc1
